Reference: PMC10215804, “Exploring Alternative Pathways to Target Bacterial Type II Topoisomerases Using NBTI Antibacterials: Beyond Halogen-Bonding Interactions” (Antibiotics, 2023)
Where two headings read alike, the source gives them in different places.

Experiments:
[1] = Metabolic activity assessment (cytotoxicity), CellTiter 96 Aqueous One; assay type: cell-based; details: human, 72 h treatment, means of three independent measurements ± SD
Procedure, shortened: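 HUVEC and HepG2 cells (passages 4–7) treated 72 h with compound (1 and 50 μM for screening) versus vehicle; metabolic activity by MTS-type CellTiter 96 AQueous One absorbance at 492 nm. Reported as % of vehicle control or IC50 (mean ± SD, three experiments) by non-linear regression.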

human topoisomerase IIα = target: T1, human topoisomerase IIα (Homo sapiens, UniProt P11388); assay: human topoisomerase II alpha relaxation high-throughput assay (selectivity); assay type: biochemical; details: residual activity at 100 µM compound; mean ± SD, two independent experiments; read-out: Human TopoIIα (% RA at 100 µM)
T1 construct: purchased Inspiralis (Norwich, UK)
Protocol: For selectivity determination, a human topoisomerase II alpha relaxation high-throughput assay was used. The assay kits and black streptavidin-coated 96-well microtiter plates are available from Inspiralis (Norwich, UK). Two independent measurements were performed with an inhibitory concentration of 100 µM. Raw data were calculated as the mean ± SD percentage of the residual enzyme activity.

K. pneumoniae = assay: MIC, broth microdilution; assay type: cell-based; details: Klebsiella pneumoniae
Procedure, shortened: (§1)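 Per CLSI and EUCAST guidance, cation-adjusted Mueller–Hinton broth with TES, final inoculum 10^5 CFU/mL; compounds added from DMSO. MIC read as lowest concentration preventing visible growth.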

E. coli D22 = assay: MIC, broth microdilution; assay type: cell-based; details: Escherichia coli
Procedure, shortened: (§2)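 CLSI/EUCAST microdilution; CAMHB + TES; final inoculum 10^5 CFU/mL from 0.5 McFarland suspension; compounds dissolved in DMSO; MIC = lowest concentration with no visible growth; tetracycline control on every plate.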

A. baumannii = assay: MIC, broth microdilution; assay type: cell-based; details: Acinetobacter baumannii
Procedure, shortened: as §1

VRE = assay: MIC, broth microdilution; assay type: cell-based; details: Enterococcus
Procedure, shortened: as §1

E. coli N43 (CGSC# 5583) = assay: MIC, broth microdilution; assay type: cell-based; details: Escherichia coli
Procedure, shortened: as §1

E. faecalis RDK 057 = assay: MIC, broth microdilution; assay type: cell-based
Procedure, shortened: as §2

E. coli ESBL QA-11.3 = assay: MIC, broth microdilution; assay type: cell-based; details: Escherichia coli
Procedure, shortened: as §1

S. aureus (ATCC 29213) = assay: MIC, broth microdilution; assay type: cell-based; details: Staphylococcus aureus, ATCC29213
Procedure, shortened: as §2

P. aeruginosa RDK 184 = assay: MIC, broth microdilution; assay type: cell-based; details: Pseudomonas aeruginosa
Procedure, shortened: as §1

E. coli (ATCC 25922) = assay: MIC, broth microdilution; assay type: cell-based; details: Escherichia coli
Procedure, shortened: as §1

S. aureus DNA gyrase = target: T2, S. aureus DNA gyrase (Staphylococcus aureus, UniProt P20831); assay: biochemical; details: supercoiling inhibition; mean of two independent measurements ± SD
T2 construct: purchased Inspiralis (Norwich, UK)
Procedure, shortened: (§3)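 Plate-based gyrase supercoiling and topoIV relaxation assays were run with S. aureus and E. coli enzymes, with pre-screening at 100 μM inhibitor. IC50 values came from a four-parameter symmetric nonlinear fit of log[inhibitor] versus reaction slope. Each is the mean of two independent repetitions.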

S. aureus topoIV = target: T3, S. aureus topoIV (Staphylococcus aureus, UniProt P0C1U9); assay: biochemical; details: relaxation inhibition; mean of two independent measurements ± SD
T3 construct: purchased Inspiralis (Norwich, UK)
T3 sequence (P0C1U9 whole entry): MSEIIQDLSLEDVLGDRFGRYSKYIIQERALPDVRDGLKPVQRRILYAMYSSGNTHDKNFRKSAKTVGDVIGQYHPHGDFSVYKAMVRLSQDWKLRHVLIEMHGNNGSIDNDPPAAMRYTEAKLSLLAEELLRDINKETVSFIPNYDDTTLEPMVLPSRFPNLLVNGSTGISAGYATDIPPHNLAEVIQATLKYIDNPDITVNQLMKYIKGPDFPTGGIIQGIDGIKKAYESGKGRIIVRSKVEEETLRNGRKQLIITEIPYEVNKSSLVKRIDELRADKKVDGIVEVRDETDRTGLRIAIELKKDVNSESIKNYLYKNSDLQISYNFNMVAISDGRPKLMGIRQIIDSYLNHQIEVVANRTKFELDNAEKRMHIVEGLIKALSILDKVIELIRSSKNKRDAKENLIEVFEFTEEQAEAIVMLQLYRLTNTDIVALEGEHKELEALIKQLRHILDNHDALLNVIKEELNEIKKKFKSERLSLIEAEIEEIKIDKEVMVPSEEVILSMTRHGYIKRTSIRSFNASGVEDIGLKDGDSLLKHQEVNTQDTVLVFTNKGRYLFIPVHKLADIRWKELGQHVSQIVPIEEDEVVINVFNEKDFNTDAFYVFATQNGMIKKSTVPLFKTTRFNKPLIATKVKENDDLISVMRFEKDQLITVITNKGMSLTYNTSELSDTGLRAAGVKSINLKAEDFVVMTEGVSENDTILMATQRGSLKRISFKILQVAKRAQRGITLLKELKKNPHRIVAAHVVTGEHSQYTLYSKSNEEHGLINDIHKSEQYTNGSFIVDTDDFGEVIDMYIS
T3 sequence (P0C1S7 whole entry partner): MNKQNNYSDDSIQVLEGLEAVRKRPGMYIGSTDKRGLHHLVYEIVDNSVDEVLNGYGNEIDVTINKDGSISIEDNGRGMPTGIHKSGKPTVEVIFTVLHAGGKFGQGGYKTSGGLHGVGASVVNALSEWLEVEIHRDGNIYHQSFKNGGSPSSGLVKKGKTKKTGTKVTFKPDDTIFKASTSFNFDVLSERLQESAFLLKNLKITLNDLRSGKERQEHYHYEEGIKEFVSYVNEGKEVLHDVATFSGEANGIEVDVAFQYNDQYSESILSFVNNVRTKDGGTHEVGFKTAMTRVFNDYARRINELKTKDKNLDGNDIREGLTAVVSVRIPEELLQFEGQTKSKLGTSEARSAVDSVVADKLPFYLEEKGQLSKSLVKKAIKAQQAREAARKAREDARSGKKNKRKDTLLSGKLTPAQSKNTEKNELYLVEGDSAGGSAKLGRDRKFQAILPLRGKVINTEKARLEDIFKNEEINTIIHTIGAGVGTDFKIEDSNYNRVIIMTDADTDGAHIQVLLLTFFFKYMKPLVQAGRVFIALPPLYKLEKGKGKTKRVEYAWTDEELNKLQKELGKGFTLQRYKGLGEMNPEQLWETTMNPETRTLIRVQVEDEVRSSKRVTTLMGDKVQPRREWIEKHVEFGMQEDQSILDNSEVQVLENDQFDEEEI
Procedure, shortened: as §3

E. coli topoIV = target: T4, E. coli topoIV (Escherichia coli, UniProt P0AFI2); assay: topoIV relaxation inhibition assay (high-throughput plate assay); assay type: biochemical
T4 construct: purchased Inspiralis (Norwich, UK)
T4 sequence (P20083 whole entry): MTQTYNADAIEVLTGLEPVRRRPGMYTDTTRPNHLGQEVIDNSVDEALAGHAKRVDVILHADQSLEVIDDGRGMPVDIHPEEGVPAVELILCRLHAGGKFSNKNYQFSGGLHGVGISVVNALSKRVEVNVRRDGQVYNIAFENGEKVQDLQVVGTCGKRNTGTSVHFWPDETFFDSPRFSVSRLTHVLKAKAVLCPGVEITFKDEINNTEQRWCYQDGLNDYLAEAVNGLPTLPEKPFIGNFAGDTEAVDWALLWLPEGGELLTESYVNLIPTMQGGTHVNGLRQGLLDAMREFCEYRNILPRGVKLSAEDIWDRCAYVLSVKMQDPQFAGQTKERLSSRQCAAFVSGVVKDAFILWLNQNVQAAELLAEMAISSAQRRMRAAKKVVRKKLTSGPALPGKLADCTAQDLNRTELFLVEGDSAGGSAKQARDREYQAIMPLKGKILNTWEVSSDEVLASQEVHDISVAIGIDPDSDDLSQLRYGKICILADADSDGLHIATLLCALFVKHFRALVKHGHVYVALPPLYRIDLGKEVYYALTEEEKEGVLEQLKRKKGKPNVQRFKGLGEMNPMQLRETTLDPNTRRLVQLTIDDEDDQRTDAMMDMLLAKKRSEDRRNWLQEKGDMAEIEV
T4 sequence (P0AFI2 whole entry): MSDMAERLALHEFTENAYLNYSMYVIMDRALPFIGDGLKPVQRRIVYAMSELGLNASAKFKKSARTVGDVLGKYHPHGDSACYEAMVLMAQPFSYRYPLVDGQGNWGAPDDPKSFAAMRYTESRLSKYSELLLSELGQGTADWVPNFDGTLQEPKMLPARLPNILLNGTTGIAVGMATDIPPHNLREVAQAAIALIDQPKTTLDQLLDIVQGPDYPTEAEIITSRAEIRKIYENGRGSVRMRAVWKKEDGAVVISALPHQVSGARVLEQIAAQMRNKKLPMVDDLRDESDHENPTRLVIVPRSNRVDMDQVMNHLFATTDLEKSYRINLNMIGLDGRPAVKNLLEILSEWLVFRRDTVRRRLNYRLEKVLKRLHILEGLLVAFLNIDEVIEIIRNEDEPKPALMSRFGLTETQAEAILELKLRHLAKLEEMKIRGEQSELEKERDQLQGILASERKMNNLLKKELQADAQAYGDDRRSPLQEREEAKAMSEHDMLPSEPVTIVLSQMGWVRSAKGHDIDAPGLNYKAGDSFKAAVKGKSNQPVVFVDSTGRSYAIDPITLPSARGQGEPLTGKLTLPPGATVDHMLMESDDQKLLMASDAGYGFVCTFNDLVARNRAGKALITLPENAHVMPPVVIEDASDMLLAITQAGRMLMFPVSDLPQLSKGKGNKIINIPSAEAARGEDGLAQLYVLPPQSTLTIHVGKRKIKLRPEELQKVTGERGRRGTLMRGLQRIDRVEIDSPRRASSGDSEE
Procedure, shortened: as §3

E. coli DNA gyrase = target: T5, E. coli DNA gyrase (Escherichia coli, UniProt P0AES4); assay: DNA gyrase supercoiling inhibition assay (high-throughput plate assay); assay type: biochemical
T5 construct: purchased Inspiralis (Norwich, UK)
T5 sequence (P0AES4 whole entry): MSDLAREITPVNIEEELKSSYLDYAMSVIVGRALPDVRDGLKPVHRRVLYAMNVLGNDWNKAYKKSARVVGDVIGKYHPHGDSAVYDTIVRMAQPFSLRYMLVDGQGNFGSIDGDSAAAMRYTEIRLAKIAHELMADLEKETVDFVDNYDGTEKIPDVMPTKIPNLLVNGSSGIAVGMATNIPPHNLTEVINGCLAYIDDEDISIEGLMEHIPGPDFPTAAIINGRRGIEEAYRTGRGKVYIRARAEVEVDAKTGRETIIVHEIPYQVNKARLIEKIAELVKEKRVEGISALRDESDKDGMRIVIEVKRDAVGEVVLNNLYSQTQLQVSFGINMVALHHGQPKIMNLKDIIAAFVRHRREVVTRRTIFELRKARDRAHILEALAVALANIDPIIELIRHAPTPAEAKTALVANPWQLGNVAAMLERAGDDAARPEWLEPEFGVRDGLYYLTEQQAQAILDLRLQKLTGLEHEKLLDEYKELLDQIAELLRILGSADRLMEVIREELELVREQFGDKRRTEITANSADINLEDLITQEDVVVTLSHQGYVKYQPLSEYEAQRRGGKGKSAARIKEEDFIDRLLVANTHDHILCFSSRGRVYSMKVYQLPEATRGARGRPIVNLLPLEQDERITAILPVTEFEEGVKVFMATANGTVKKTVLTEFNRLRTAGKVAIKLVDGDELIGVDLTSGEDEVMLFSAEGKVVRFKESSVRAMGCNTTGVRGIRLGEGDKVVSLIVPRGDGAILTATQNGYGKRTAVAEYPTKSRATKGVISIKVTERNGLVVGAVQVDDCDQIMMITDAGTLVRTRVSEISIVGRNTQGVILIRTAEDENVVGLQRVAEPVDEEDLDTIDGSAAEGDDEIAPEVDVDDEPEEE
Procedure, shortened: as §3

[2] = 20 h, Table S3, read-out: MIC (μM) K. pneumoniae
[3] = D22, Table S3, lpxC mutation, read-out: MIC (μM) E. coli D22
[4] = D22, lpxC mutation that increases membrane permeability, read-out: MIC E. coli D22
[5] = Table S3, read-out: MIC (μM) A. baumannii
[6] = Table S3, read-out: MIC (μM) VRE
[7] = read-out: MIC E. coli N43 (CGSC# 5583)
[8] = Enterococcus faecalis, RDK057; Table S3; read-out: MIC (μM) E. faecalis DRK 057
[9] = Enterococcus faecalis, RDK057; read-out: MIC E. faecalis RDK 057
[10] = ESBLQA11.3, 20 h, Table S3, read-out: MIC (μM) E. coli ESBL QA:11.3
[11] = ESBLQA11.3, read-out: MIC E. coli ESBL QA-11.3
[12] = Table S3, read-out: MIC (μM) S. aureus (ATCC 29213)
[13] = read-out: MIC S. aureus (ATCC 29213)
[14] = RDK184, 20 h, Table S3, read-out: MIC (μM) P. aeruginosa RDK 184
[15] = RDK184, read-out: MIC P. aeruginosa RDK 184
[16] = ATCC25922, 20 h, Table S3, read-out: MIC (μM) E. coli (ATCC 25922)
[17] = ATCC25922, read-out: MIC E. coli (ATCC 25922)
[18] = Table S3, read-out: MIC (μM) K. pneumoniae
[19] = ESBLQA11.3, Table S3, read-out: MIC (μM) E. coli ESBL QA:11.3
[20] = ATCC25922, Table S3, read-out: MIC (μM) E. coli (ATCC 25922)

| Compound | IC50 at 72 h ([1]; HUVEC cells (ATCC CRL-1730)) [nM] | IC50 at 72 h ([1]; HepG2 cells (ATCC HB-8065)) [nM] | remaining activity at 100 µM (human topoisomerase IIα) [%] | MIC (K. pneumoniae; read-out: MIC K. pneumoniae) [µg/mL] | MIC (E. coli D22; [4]) [µg/mL] | MIC (A. baumannii; [5]) [µM] | MIC (A. baumannii; read-out: MIC A. baumannii) [µg/mL] | MIC (VRE; [6]) [µM] | MIC (VRE; read-out: MIC VRE) [µg/mL] | MIC (E. coli N43 (CGSC# 5583); read-out: MIC (μM) E. coli N43) [µM] | MIC (E. coli N43 (CGSC# 5583); [7]) [µg/mL] | MIC (E. coli ESBL QA-11.3; [11]) [µg/mL] | MIC (S. aureus (ATCC 29213); [12]) [µM] | MIC (S. aureus (ATCC 29213); [13]) [µg/mL] | MIC (P. aeruginosa RDK 184; [14]) [µM] | MIC (P. aeruginosa RDK 184; [15]) [µg/mL] | MIC (E. coli (ATCC 25922); [17]) [µg/mL] | IC50 (S. aureus DNA gyrase) [nM] | IC50 (S. aureus topoIV) [nM] | IC50 (E. coli topoIV) [nM] | also measured |
| --- | --- | --- | --- | --- | --- | --- | --- | --- | --- | --- | --- | --- | --- | --- | --- | --- | --- | --- | --- | --- | --- |
| COc1ccc2nccc(OCC3CCC(NCc4ccc(C)cc4)CC3)c2n1 (stereo not drawn) [Compound 6] | 36600 ± 7910 | 22500 ± 2700 | 101 | > 128 | 32 | 164 | 64 | 5.12 | 2 | 10.2 | 4 | > 128 | 2.56 | 1 | > 328 | > 128 | > 128 | 403 ± 20 | > 100000 | 2890 ± 880 | MIC (K. pneumoniae; [2]): > 328 µM; MIC (E. coli D22; [3]): 81.9 µM; MIC (E. faecalis RDK 057; [8]): 20.5 µM; MIC (E. faecalis RDK 057; [9]): 8 µg/mL; MIC (E. coli ESBL QA-11.3; [10]): > 328 µM; MIC (E. coli (ATCC 25922); [16]): > 328 µM; IC50 (E. coli DNA gyrase): 1520 ± 361 nM |
| COc1ccc2nccc(C(O)CC3CCC(NCc4ccc(C)cc4)CC3)c2n1 (stereo not drawn) [Compound 8, 1-(6-Methoxy-1,5-naphthyridin-4-yl)-2-(4-((4-methylbenzyl)amino)cyclohexyl)ethan-1-ol] | 33100 ± 6130 | 22300 ± 360 | 100 ± 1 | 16 | 1 | 5.12 | 2 | 0.32 | 0.125 | 2.56 | 1 | 8 | 0.161 | 0.063 | 328 | 128 | 8 | 77 ± 10 | 2500 ± 252 | 83 | MIC (K. pneumoniae; [18]): 41 µM; MIC (E. coli D22; D22, read-out: MIC (μM) E. coli D22): 2.56 µM; MIC (E. faecalis RDK 057; [8]): 0.64 µM; MIC (E. faecalis RDK 057; [9]): 0.25 µg/mL; MIC (E. coli ESBL QA-11.3; [19]): 20.5 µM; MIC (E. coli (ATCC 25922); [20]): 20.5 µM; IC50 (E. coli DNA gyrase): 1320 ± 460 nM |
| COc1ccc2nccc(OCC3CCC(NCc4ccc(C)cc4)CO3)c2n1 (stereo not drawn) [Compound 7, 6-(((6-Methoxy-1,5-naphthyridin-4-yl)oxy)methyl)-N-(4-methylbenzyl)tetrahydro-2H-pyran-3-amine] | > 50000 | > 50000 | 101 | > 128 | 32 | 164 | 64 | 5.12 | 2 | 10.2 | 4 | > 128 | 1.28 | 0.5 | > 328 | > 128 | > 128 | 194 ± 18 | > 100000 | 1530 ± 43 | MIC (K. pneumoniae; [2]): > 328 µM; MIC (E. coli D22; [3]): 81.9 µM; MIC (E. faecalis RDK 057; Enterococcus faecalis, RDK057, read-out: MIC (μM) E. faecalis DRK 057): 10.2 µM; MIC (E. faecalis RDK 057; [9]): 4 µg/mL; MIC (E. coli ESBL QA-11.3; [10]): > 328 µM; MIC (E. coli (ATCC 25922); [16]): > 328 µM; IC50 (E. coli DNA gyrase): 1310 ± 348 nM |
| COc1ccc2nccc(CCN3CCC(NCc4ccc(C)cc4)CC3)c2n1 [Compound 5, 1-(2-(6-Methoxy-1,5-naphthyridin-4-yl)ethyl)-N-(4-methylbenzyl)piperidin-4-amine] | 36500 ± 9820 | 20000 ± 3010 | 103 | 16 | 1 | 2.56 | 1 | 0.082 | 0.032 | 0.32 | 0.125 | 4 | 0.082 | 0.032 | > 328 | > 128 | 2 | 145 ± 14 | 1230 ± 258 | 89 ± 19 | MIC (K. pneumoniae; [18]): 41 µM; MIC (E. coli D22; [3]): 2.56 µM; MIC (E. faecalis RDK 057; Enterococcus faecalis, RDK057, read-out: MIC E. faecalis RDK 057): 0.125 µg/mL; MIC (E. faecalis RDK 057; [8]): 0.32 µM; MIC (E. coli ESBL QA-11.3; [19]): 10.2 µM; MIC (E. coli (ATCC 25922); [20]): 5.12 µM; IC50 (E. coli DNA gyrase): 1019 ± 5 nM |
